Assay results: paper PMC10582335 (Frontiers in Pharmacology, 2023)
Several values for one entry are separate records, joined by “and”; a condition that tells them apart may be missing. Equal entries are not always repeated. Where two headings read alike, the source gives them in different places.

Key:
[1] = Pharmacokinetics of apixaban in rats, alone and after multiple doses of almonertinib; type: in vivo, Sprague-Dawley (SD) rats; settings: for increase of AUC of apixaban: multiple doses of almonertinib; for MRT inf / MRT last / AUC(0-inf) / AUC(0-t) / Cmax / Tmax / CL/F / Vd/F / half-life: male, Sprague-Dawley, rat, po; for MRT inf: read-out: MRT0-∞; for MRT last: read-out: MRT0-t; for CL/F: read-out: CLz/F (converted); for Vd/F: read-out: Vz/F; for half-life: read-out: t1/2z (converted)
Experimental: Chromatographic separation was performed using an XSelect HSS T3 column (2.1 mm × 100 mm, 2.5 µm, Waters, Milford, MA, United States) at 40°C by gradient elution. The mobile phase consisted of water (A) and acetonitrile (0.1% formic acid, B). […] The flow rate was 0.35 mL min^−1, and the injection volume was 6 µL. The positive ion mode with multiple reaction detection was used. […] The mass spectrometer conditions, including delustering potential (DP) and collision energy (CE) of the compounds, are shown in Table 1. […] Protein precipitation was used to process the plasma samples. 5 μL of mixed IS working solution, 50 µL of the plasma samples, and 150 µL of acetonitrile were vortex-mixed for 1.0 min. […] The supernatant was transferred to a 96-well plate for sample analysis. […] (Beijing, China). […] The study was approved and supervised by the Animal Ethics Committee of Hebei General Hospital (Shijiazhuang, China) (No. 2023024). Adaptive feeding (sufficient food and water) was performed for 1 week before the experiment. […] All rats were fasted for 12 h before starting the experiments while still given water. Sixty healthy rats were randomly divided into ten groups (n = 6). […] Blood samples were centrifuged at 3,500 g for 10 min, and then the supernatant was gathered and stored in a −80°C refrigerator. After, rat intestine, kidney and liver tissues were harvested for molecular analysis on the ninth or fifth day after treatment with the corresponding drugs for each group. The tissues were placed immediately at −80°C. DAS 2.1.1 Software (Mathematical Pharmacology Professional Committee of China, Shanghai, China) was applied to calculate pharmacokinetic parameters using non-compartmental analysis. SPSS 25.0 statistical software (SPSS Inc., Chicago, IL, United States) was applied to statistically analyze the main pharmacokinetic parameters, including AUC, Cmax, Tmax, t1/2, CLz/F, Vz/F, and MRT.

[2] = cited from earlier work
[3] = parameters: method as in Frost et al., 2015; settings: ref Frost et al., 2015, cited from earlier work
[4] = Stability in rat plasma under storage and processing conditions (QC samples, UPLC-MS/MS); settings: n = 6
Experimental: The stability of plasma samples was validated by the QC samples at three concentration levels in six replicates under various storage and processing conditions: autosampler for 24 h after preprocessing, room temperature for 8 h, −80°C for 30 days, and three freeze-thaw cycles (−80°C to room temperature). The samples were verified to be stable if the deviation of the samples was not more than ±15% of the standard concentration.

[5] = apixaban 0.25 mg/kg with multiple doses of almonertinib (group 8) compared with group 2, rats
[6] = apixaban 0.5 mg/kg with multiple doses of almonertinib (group 7) compared with group 2, rats
[7] = plasma, 0.25 mg/kg, rats, oral apixaban 0.25 mg/kg after almonertinib 15 mg/kg for nine days (group 8), mean ± SD, n = 6
[8] = plasma, 0.5 mg/kg, rats, oral apixaban 0.5 mg/kg after almonertinib 15 mg/kg for nine days (group 7), mean ± SD, n = 6
[9] = plasma, 0.5 mg/kg, rats, oral apixaban 0.5 mg/kg alone (group 2), mean ± SD, n = 6
[10] = Freeze-thaw stability for three times, high QC (nominal 150 almonertinib, 800 apixaban, 1,500 rivaroxaban ng/mL)
[11] = Freeze-thaw stability for three times, low QC (nominal 1 almonertinib, 2 apixaban, 10 rivaroxaban ng/mL)
[12] = Freeze-thaw stability for three times, medium QC (nominal 80 almonertinib, 400 apixaban, 800 rivaroxaban ng/mL)
[13] = Room temperature for 8 h, high QC (nominal 150 almonertinib, 800 apixaban, 1,500 rivaroxaban ng/mL)
[14] = Room temperature for 8 h, low QC (nominal 1 almonertinib, 2 apixaban, 10 rivaroxaban ng/mL)
[15] = Room temperature for 8 h, medium QC (nominal 80 almonertinib, 400 apixaban, 800 rivaroxaban ng/mL)
[16] = −80°C for 30 days, high QC (nominal 150 almonertinib, 800 apixaban, 1,500 rivaroxaban ng/mL)
[17] = −80°C for 30 days, low QC (nominal 1 almonertinib, 2 apixaban, 10 rivaroxaban ng/mL)
[18] = −80°C for 30 days, medium QC (nominal 80 almonertinib, 400 apixaban, 800 rivaroxaban ng/mL)

COc1ccc(-n2nc(C(N)=O)c3c2C(=O)N(c2ccc(N4CCCCC4=O)cc2)CC3)cc1 [apixaban, Apixaban]
increase of Cmax of apixaban ([1]; apixaban 0.25 mg/kg with multiple doses of almonertinib (group 8) compared with apixaban 0.5 mg/kg alone (group 2), rats): 2.19 fold and 2.2 fold | decrease of CLz/F of apixaban [1, 5]: 5.29 fold | increase of AUC0-t of apixaban [1, 5]: 2.06 fold | increase of AUC0-∞ of apixaban [1, 5]: 2.02 fold | increase of Cmax of apixaban ([1]; apixaban 0.5 mg/kg with multiple doses of almonertinib (group 7) compared with apixaban 0.5 mg/kg alone (group 2), rats): 2.69 fold and ~3.0 fold | decrease of CLz/F of apixaban [1, 6]: 3.00 fold | increase of AUC0-t of apixaban [1, 6]: 2.87 fold | increase of AUC0-∞ of apixaban [1, 6]: 2.82 fold | increase of AUC of apixaban ([1]; dose of apixaban reduced by half, rats (discussion)): 2.1 fold | MRT inf ([1]; in vivo, 0.25 mg/kg): 2.06 ± 0.36 h | MRT last ([1]; in vivo, 0.5 mg/kg): 2.19 ± 0.13 h | AUC(0-inf) [1, 7]: 1870 ± 528 ng·h/mL | AUC(0-t) [1, 7]: 1870 ± 529 ng·h/mL | Cmax [1, 7]: 645 ± 191 ng/mL | Tmax [1, 7]: 0.79 ± 0.25 h | CL/F [1, 7]: 2.33 mL/min/kg | Vd/F [1, 7]: 0.44 ± 0.11 L/kg | half-life [1, 7]: 2.17 ± 0.15 h | MRT last ([1]; plasma, 0.25 mg/kg): 2.01 ± 0.32 h | AUC(0-inf) [1, 8]: 2370 ng·h/mL | AUC(0-t) [1, 8]: 2360 ng·h/mL | Cmax [1, 8]: 747 ± 159 ng/mL | Tmax [1, 8]: 0.63 ± 0.14 h | CL/F [1, 8]: 3.67 mL/min/kg | MRT inf [1, 8]: 2.11 ± 0.13 h | Vd/F [1, 8]: 0.58 ± 0.2 L/kg | half-life [1, 8]: 1.81 ± 0.23 h | AUC(0-inf) [1, 9]: 621 ± 168 ng·h/mL | AUC(0-t) [1, 9]: 611 ± 168 ng·h/mL | Cmax [1, 9]: 202 ± 50.9 ng/mL | Tmax [1, 9]: 0.68 ± 0.28 h | CL/F [1, 9]: 14.7 mL/min/kg | MRT inf [1, 9]: 2.42 ± 0.16 h | Vd/F [1, 9]: 3.72 ± 1.63 L/kg | half-life [1, 9]: 2.95 ± 0.96 h | MRT last ([1]; plasma, 0.5 mg/kg): 2.08 ± 0.13 h | increase of AUC of apixaban ([1]; rats (discussion, AUC not specified further)): ~3.0 fold | time of the maximal blood concentration after oral intake ([2]; (±1 h), each of two drugs, ref Steffel et al., 2021): 2 to 3 h | time to reach maximum plasma concentrations ([2]; after oral administration, ref Kubitza et al., 2005a, Kubitza et al., 2005b, Raghavan et al., 2009): 2 to 4 h | renal excretion as share of the total clearance ([2]; apixaban, ref Byon et al., 2019): approximately 27% | increase in exposure to apixaban ([3]; combined with diltiazem): 1.4 fold | increase in exposure to apixaban ([3]; combined with ketoconazole): 2.0 fold | Stability: Accuracy (RE%) [4, 10]: 0.04% | Stability: measured concentration, Mean ± SD [4, 10]: 800.33 ± 24.72 ng/mL | Stability: Accuracy (RE%) [4, 11]: −3.42% | Stability: measured concentration, Mean ± SD [4, 11]: 1.93 ± 0.13 ng/mL | Stability: Accuracy (RE%) [4, 12]: 2.67% | Stability: measured concentration, Mean ± SD [4, 12]: 410.67 ± 12.03 ng/mL | Stability: Accuracy (RE%) [4, 13]: 0.60% | Stability: measured concentration, Mean ± SD [4, 13]: 804.83 ± 20.23 ng/mL | Stability: Accuracy (RE%) [4, 14]: 3.83% | Stability: measured concentration, Mean ± SD [4, 14]: 2.08 ± 0.07 ng/mL | Stability: Accuracy (RE%) [4, 15]: 6.08% | Stability: measured concentration, Mean ± SD [4, 15]: 424.33 ± 9.35 ng/mL | Stability: Accuracy (RE%) [4, 16]: −2.15% | Stability: measured concentration, Mean ± SD [4, 16]: 782.83 ± 22.19 ng/mL | Stability: Accuracy (RE%) [4, 17]: 0.83% | Stability: measured concentration, Mean ± SD [4, 17]: 2.02 ± 0.08 ng/mL | Stability: Accuracy (RE%) [4, 18]: 0.13% | Stability: measured concentration, Mean ± SD [4, 18]: 400.50 ± 19.99 ng/mL
